Experimental data taken from patent US5006548A, “Acrylamidobenzoic acid derivatives and their use” (Sawai Pharmaceutical Co., Ltd., priority 1984, dated 1991).

Assays:
Acute toxicity = settings: mouse, in vivo, mice, one week
Protocol: As test animals, ddy-strain mice (male) were used. According to the conventional procedure, suspension or solution of test compound was administered to the animals. From the number of the dead animals up to one week after the administration, LD50 values were obtained by Provit method.

SRS-A = assay: Anti-SRS-A action: ileum contraction induced by crude SRS-A solution; parameters: species or system guinea pig
Protocol: A piece of lung of guinea pig sensitized with ovalbumin was incubated with antigen ovalbumin at 37° C. for 20 minutes and supernatant was separated in order to use as a crude SRS-A solution.
A piece of ileum of a normal guinea pig was suspended in Tyrode's solution in a Magnus tube and incubated with a solution of the compound to be tested for a predetermined duration. The contraction of the piece of ileum induced by adding the above crude SRS-A solution was compared with that attributed to 10^-6 M histamine dihydrochloride (which was taken as 100). The anti-SRS-A action was shown in terms of the rate of inhibition to the contraction.

hyaluronidase = biological target: T1, hyaluronidase (Bos taurus, UniProt Q2YDK3); assay: Antihyaluronidase activity (modified Morgan-Elson method, activated by Compound 48/80 or CaCl2); assay type: biochemical; settings: hyaluronidase 340 NF unit/ml, 37° C.
T1 sequence (Q2YDK3 36-553): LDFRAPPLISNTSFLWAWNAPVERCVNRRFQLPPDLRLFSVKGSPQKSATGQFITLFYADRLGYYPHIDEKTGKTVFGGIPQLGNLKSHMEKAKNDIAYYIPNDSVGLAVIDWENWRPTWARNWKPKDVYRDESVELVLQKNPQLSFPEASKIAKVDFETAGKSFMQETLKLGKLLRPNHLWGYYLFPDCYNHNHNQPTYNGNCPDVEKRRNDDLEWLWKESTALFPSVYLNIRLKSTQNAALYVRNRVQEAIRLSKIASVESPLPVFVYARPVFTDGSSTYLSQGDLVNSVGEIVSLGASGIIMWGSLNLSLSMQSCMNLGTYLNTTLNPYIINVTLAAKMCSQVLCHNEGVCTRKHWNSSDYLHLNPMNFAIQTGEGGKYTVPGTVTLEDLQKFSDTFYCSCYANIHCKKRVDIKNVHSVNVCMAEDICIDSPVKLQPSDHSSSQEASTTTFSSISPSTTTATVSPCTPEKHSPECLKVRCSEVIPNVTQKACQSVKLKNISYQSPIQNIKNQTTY
Source text: In view of the fact that antiallergic agents such as sodium cromoglicate (DSCG), tranilast, etc. inhibit the hyaluronidase activity and that compounds which release histamine from the mast cells such as the […] and polymixin B activate the hyaluronidase, it is considered that the hyaluronidase inhibiting activity can be taken as an index for the antiallergic action. [ct. The 5th Medicinal Chemistry Symposium (Dec. 9 and 10, 1983; Kyoto) Synopsis of Lectures, page 68]. On the basis of such knowledge, the compounds according to the invention were tested for anti-hyaluronidase activity and found to have the excellent activities.
A buffer solution of hyaluronidase (0.1 ml) was taken in a test tube and buffer solutions of various compounds in various concentrations (0.2 ml each) were added. The mixture was incubated at 37° C. for 20 minutes. Then, a buffer solution of activating agent (Compound 48/80 or CaCl2) (0.2 ml) was added up to the total volume of 0.5 ml, and the mixture was incubated at 37° C. for 20 minutes. To this solution, potassium hyaluronate buffer solution (0.5 ml) was added and the mixture was incubated at 37° C. for 40 minutes. After cooling, the solution was neutralized with 0.4N aqueous solution of sodium hydroxide (0.2 ml) to stop the reaction. On the resulting solution, OD585 was determined by modified Morgan-Elson method. A buffer solution or water (0.2 ml) was used as a control in place of the solution of the compounds in the same operation including OD585 measurement. (Final concentration of hyaluronidase was 340 NF unit/ml.)

[1] = test system: passive cutaneous anaphylaxis; assay: Anti-passive cutaneous anaphylaxis (PCA) activity in rats; assay type: in vivo, Wistar strain rats; settings: for Average Inhibition Rate (%), Antiserum Dilution: × 16 / Average Inhibition Rate (%), Antiserum Dilution: × 32: 100 mg/kg PO, rats; for anti-PCA activity (in words): rat, in vivo
Protocol: Wistar strain rats were sensitized with ovalbumin using aluminium hydroxide gel and Bordetella Pertussis vaccine as adjuvants. Dilutions of antiserum (16-fold and 32-fold) obtained by collecting blood samples 14 days later were administered subcutaneously in the dorsal skin of the rats of the same strain at the rate of 0.1 ml per spot, and the rats were grown for 48 hours. One hour after peroral administration of the sample solution, a mixture of antigen ovalbumin and Evans-blue dye was administered to the tail venous of the animal according to the ordinary procedure. Thirty minutes later, the animals were sacrificed by exsanguination, and the areas of blue spots (long diameter×short diameter) eliciting on the portion of the antiserum injection at the dorsal skin were measured to obtain the rate of inhibition based on the average value shown by the control animals.

peritoneal mast cell = assay: Inhibition of histamine release from mast cell in abdominal cavity of rats by antigen-antibody reaction; assay type: cell-based, rat; settings: for effect on natural release of histamine (in words) / activity at 1000 µM: 10^-3 M; for activity at 1000 µM / activity at 100 µM / activity at 10 µM / activity at 1 µM: Rattus norvegicus, Mast cell, 20 min, DNP-Ascaris 20 microgramms/ml, read-out: Amount of histamine released from peritoneal mast cell (Control=100); for activity at 100 µM: 10^-4 M; for activity at 10 µM: 10^-5 M; for activity at 1 µM: 10^-6 M; for inhibitory activity compared with tranilast (in words): range of 10^-6 M to 10^-3 M
Protocol: Examination was made on the activity of inhibition of histamine release from mast cell by antigen-antibody reaction.
Swine ascaris extract solution was dinitrophenylated according to Aisen's method, dialysed, and lyophilized. The product was administered as antigen together with Bordetella Pertussis vaccine subcutaneously into the foot pad of rat. Eight days later, blood was taken in order to obtain antiserum. The PCA titer for this antiserum in rat was 32 to 64.
Heparin-containing PBS was injected intraperitoneally to rat which was sacrificed by exsanguination, after which the abdomen was well massaged. Then the injected PBS was collected and purified by washing several times by centrifugation. The number of the mast cells contained in the solution was determined and adjusted to the designed concentration. As to method of sensitizing the cell, the above cell suspension (6 ml, 2×10^6 cells/ml) was treated with anti-DNP-Ascaris rat serum (PCA titer 32) (6 ml) and the mixture was incubated in the presence of heparin at 37° C. for 2 hours.
To the sensitized mast cell suspension, the solution of the compound to be tested was added, and the mixture was preliminarily incubated at 37° C. for 12 minutes. After addition of the solution of antigen DNP-Ascaris (final concentration: 20 microgramms/ml), the mixture was further incubated for 20 minutes. After completion of the reaction, the solution was centrifuged (500 G, 10 min.) at a low temperature to obtain a supernatant solution. Histamine contained in the supernatant solution was determined by fluorometry using orthophthalaldehyde method.

[2] = test system: ileum of guinea pig active-sensitized with ovalbumin; assay: Anti-Schultz-Dale action: ovalbumin-induced contraction of sensitized ileum; settings: 10^-3 M
Protocol: A piece of ileum of guinea pig active-sensitized with ovalbumin with Freund complete adjuvant was suspended in Tyrode's solution in a Magnus tube and incubated with a solution of the compound to be tested for a predetermined duration. The contraction of the piece of ileum induced by applying the ovalubumin was compared with that attributed to 10^-6 M histamine dihydrochloride. The anti-Schultz-Dale action was shown in terms of the rate of inhibition to the contraction.

## O=C(C=Cc1cccs1)Nc1ccccc1C(=O)O [Compound 2, 2-[3-(2-thienyl)acrylamido]benzoic acid]
Acute toxicity; Intravenous
  LD50 at 168 h: 277 mg/kg
Acute toxicity; PO
  LD50 at 168 h: 400 mg/kg
SRS-A
  anti-SRS-A action (in words): mild anti-SRS-A action
SRS-A; 10^-3 M
  inhibition of SRS-A induced contraction: 11.0%
hyaluronidase
  IC50: 140 µM
[1]
  Average Inhibition Rate (%), Antiserum Dilution: × 16: 26.7%
  Average Inhibition Rate (%), Antiserum Dilution: × 32: 21.2%
  anti-PCA activity (in words): showed the anti-PCA activity
Peritoneal mast cell
  inhibition of histamine release from mast cell (in words): action of inhibiting release of histamine from the mast cell even at the low concentration of 10^-6 M
  effect on natural release of histamine (in words): inhibited natural release of histamine
  activity at 1000 µM: -130%
  activity at 100 µM: -70%
  activity at 10 µM: 24%
  activity at 1 µM: 11%
  inhibitory activity compared with tranilast (in words): stronger inhibitory activity than the control tranilast
[2]
  anti-Schultz-Dale action (in words): strong anti-Schultz-Dale action
  inhibition of contraction (anti-Schultz-Dale): 100%

## O=C(C=Cc1ccco1)Nc1cc([N+](=O)[O-])ccc1C(=O)O [Compound 5]
hyaluronidase
  IC50: 300 µM

## O=C(C=Cc1ccsc1)Nc1ccccc1C(=O)O [Compound 1, 2-[3-(3-thienyl)acrylamido]benzoic acid]
Acute toxicity; Intravenous
  LD50 at 168 h: 438 mg/kg
Acute toxicity; PO
  LD50 at 168 h: 615 mg/kg
SRS-A
  anti-SRS-A action (in words): mild anti-SRS-A action
SRS-A; 10^-3 M
  inhibition of SRS-A induced contraction: 23.9%
SRS-A; 10^-4 M
  inhibition of SRS-A induced contraction: 14.8%
hyaluronidase
  IC50: 86 µM
[1]
  Average Inhibition Rate (%), Antiserum Dilution: × 16: 31.6%
  Average Inhibition Rate (%), Antiserum Dilution: × 32: 41.8%
Peritoneal mast cell
  inhibition of histamine release from mast cell (in words): action of inhibiting release of histamine from the mast cell even at the low concentration of 10^-6 M
  effect on natural release of histamine (in words): inhibited natural release of histamine
  activity at 1000 µM: -88%
  activity at 100 µM: 11%
  activity at 10 µM: 36%
  activity at 1 µM: 31%
  inhibitory activity compared with tranilast (in words): stronger inhibitory activity than the control tranilast
[2]
  anti-Schultz-Dale action (in words): strong anti-Schultz-Dale action
  inhibition of contraction (anti-Schultz-Dale): 83.5%

## Cn1cccc1C=CC(=O)Nc1ccccc1C(=O)O [Compound 6]
hyaluronidase
  IC50: 120 µM

## O=C(C=Cc1ccco1)Nc1cc(Cl)ccc1C(=O)O [Compound 4]
hyaluronidase
  IC50: 258 µM

## O=C(C=Cc1ccco1)Nc1ccccc1C(=O)O [Compound 3, 2-[3-(2-furyl)acrylamido]benzoic acid]
hyaluronidase
  IC50: 160 µM
[1]
  anti-PCA activity (in words): showed the anti-PCA activity
Peritoneal mast cell
  inhibition of histamine release from mast cell (in words): strong inhibition from 10^-4 M
  activity at 1000 µM: 0%
  activity at 100 µM: 36%
  activity at 10 µM: 85%
  activity at 1 µM: 95%
  inhibitory activity compared with tranilast (in words): stronger inhibitory activity than the control tranilast

## COc1ccc(/C=C/C(=O)Nc2ccccc2C(=O)O)cc1OC [Tranilast, reference compound]
SRS-A
  anti-SRS-A action (in words): no action
Peritoneal mast cell
  activity at 1000 µM: 29%
  activity at 100 µM: 67%
  activity at 10 µM: 95%
  activity at 1 µM: 95%
[2]
  anti-Schultz-Dale action (in words): no action
